Data published in patent US20180353518A1, “OPHTHALMIC SOLUTIONS” (Santen Pharmaceutical Co., LTD., priority 2000, published 2018).

Experiment: Solubility Test with polysorbate 80 in water
Format: physicochemical
Conditions: room temperature and 40° C.
Description: In order to formulate a drug which is hardly soluble in water in an ophthalmic solution, it is necessary to devise to dissolve the drug in water. Since the nonionic surfactant acts as the solubilizing agent, the following solubility tests were performed in order to make sure of its required amount.
Test method: The present compound having a concentration exceeding solubility and polysorbate 80 were added to 10 ml of water, the mixtures were stirred at 5° C., room temperature and 40° C. for 24 hours respectively and then centrifuged at 20,000 rpm, and concentrations of the present compound contained in the supernatants were measured by the HPLC method. […] The “%” in the FIGURE is % by weight.

Question: For `CC(C)OC(=O)CCC/C=C\C[C@@H]1[C@@H](/C=C/C(F)(F)COc2ccccc2)[C@H](O)C[C@@H]1O` [the present compound, 16-Phenoxy-15-deoxy-15,15-difluoro-17,18,19,20-tetranorprostaglandin F2α isopropyl ester], which “Water-solubility of the present compound versus temperature” value (5° C., with polysorbate 80 (FIG. 1)) is on record?
Answer: The value was “at low temperatures is higher than that at high temperatures”.

Question: What about the “solubility of the present compound versus amount of polysorbate 80” value (water, stirred 24 hours at 5° C., supernatant by HPLC (FIG. 1)) of the same compound?
Answer: Its value is “increases depending on amounts of polysorbate 80”.
